According to US10669256B2, “Crystalline forms of lasmiditan, preparation methods, pharmaceutical compositions and uses thereof” (priority 2016, dated 2020):
“Also recorded” adds a separate entry of the source. Counter-ions that a name gives are not always drawn.

What was measured:
[1] = Solid state stability experiment (XRD after storage at room temperature under dry condition); format: physicochemical; details: for 1 day test results (solid form by XRD): stored 1 day; for 10 days test results (solid form by XRD): stored 10 days
Description: X-ray powder diffraction (XRPD): performed on Bruder D8 Advance diffractometer. Samples were tested at room temperature. Testing conditions: […] 3-40°, step size 0.02°, and speed 0.2 s/step.
Solid state stability experiment: Placed 20 mg of each of lasmiditan amorphous form of preparation Example 1, lasmiditan hydrochloride amorphous of Preparation Example 2, lasmiditan Form 1, lasmiditan Form 2, lasmiditan Form 3, lasmiditan hydrochloride Form A, lasmiditan hydrochloride Form B, lasmiditan hydrochloride Form C, and lasmiditan hydrochloride Form E of the present invention at room temperature under dry condition, took the samples out and analyzed by XRD at the corresponding time, their XRD pattern are shown in FIGS. 16-18 and FIGS. 46-50.

[2] = Dynamic vapor sorption / isothermal sorption (hygroscopicity); format: physicochemical; details: for weight change (isothermal sorption plot): between 0 to 80% RH; for weight change (DVS isothermal sorption plot): between 20 to 80% RH
Description: Dynamic vapor sorption data and isothermal sorption data were collected on TA Instruments Q5000 TGA. Method: A sample of 1 to 10 mg was placed in a platinum pan; the weight change of the sample during the change in relative humidity from 0% to 80% to 0% was measured.

SMILES	1 day test results (solid form by XRD) ([1]; hydrochloride)	weight change (isothermal sorption plot) ([2]; hydrochloride) [%]	10 days test results (solid form by XRD) ([1]; hydrochloride)	1 day test results (solid form by XRD) [1]	10 days test results (solid form by XRD) [1]	weight change (isothermal sorption plot) [2] [%]	weight change (DVS isothermal sorption plot) [2] [%]	also measured
CN1CCC(C(=O)c2cccc(NC(=O)c3c(F)cc(F)cc3F)n2)CC1 [Lasmiditan hydrochloride Form E, lasmiditan hydrochloride]	Change to Form A							1 day test results (solid form by XRD) ([1]; listed as lasmiditan hydrochloride Form E, hydrochloride): converted to Form A
CN1CCC(C(=O)c2cccc(NC(=O)c3c(F)cc(F)cc3F)n2)CC1 [Lasmiditan hydrochloride amorphous form, lasmiditan hydrochloride, reference compound]	began to crystallize	8.1						weight change (isothermal sorption plot) ([2]; listed as Preparation Example 2, hydrochloride): 8.1%
CN1CCC(C(=O)c2cccc(NC(=O)c3c(F)cc(F)cc3F)n2)CC1 [Lasmiditan hydrochloride Form B, lasmiditan hydrochloride]	Form B	4.2	Form B					10 days test results (solid form by XRD) ([1]; listed as lasmiditan hydrochloride Form B, hydrochloride): remained unchanged; also recorded: still remained their original forms
CN1CCC(C(=O)c2cccc(NC(=O)c3c(F)cc(F)cc3F)n2)CC1 [Lasmiditan Form 1, 2,4,6-trifluoro-N-[6-(1-methyl-piperidine-4-carbonyl)pyridin-2-yl]-benzamide]				Form 1	Form 1	0.1	0.1	10 days test results (solid form by XRD) ([1]; listed as lasmiditan Form 1): remained unchanged; also recorded: still remained their original forms
CN1CCC(C(=O)c2cccc(NC(=O)c3c(F)cc(F)cc3F)n2)CC1 [Lasmiditan amorphous form, 2,4,6-trifluoro-N-[6-(1-methyl-piperidine-4-carbonyl)pyridin-2-yl]-benzamide, reference compound]				began to crystallize		9.5	9.5	weight change (isothermal sorption plot) ([2]; listed as Preparation Example 1): 9.5%
CN1CCC(C(=O)c2cccc(NC(=O)c3c(F)cc(F)cc3F)n2)CC1 [Lasmiditan Form 2, 2,4,6-trifluoro-N-[6-(1-methyl-piperidine-4-carbonyl)pyridin-2-yl]-benzamide]				Form 2	Form 2	0.1	0.1	10 days test results (solid form by XRD) ([1]; listed as lasmiditan Form 2): still remained their original forms; also recorded: remained unchanged
CN1CCC(C(=O)c2cccc(NC(=O)c3c(F)cc(F)cc3F)n2)CC1 [Lasmiditan hydrochloride Form C, lasmiditan hydrochloride]	Form C	0.9	Form C					10 days test results (solid form by XRD) ([1]; listed as lasmiditan hydrochloride Form C, hydrochloride): remained unchanged; also recorded: still remained their original forms
CN1CCC(C(=O)c2cccc(NC(=O)c3c(F)cc(F)cc3F)n2)CC1 [Lasmiditan Form 3, 2,4,6-trifluoro-N-[6-(1-methyl-piperidine-4-carbonyl)pyridin-2-yl]-benzamide]				Form 3	Form 3	0.7		10 days test results (solid form by XRD) ([1]; listed as lasmiditan Form 3): still remained their original forms; also recorded: remained unchanged
CN1CCC(C(=O)c2cccc(NC(=O)c3c(F)cc(F)cc3F)n2)CC1 [Lasmiditan hydrochloride Form A, lasmiditan hydrochloride]	Form A	0.1	Form A					10 days test results (solid form by XRD) ([1]; listed as lasmiditan hydrochloride Form A, hydrochloride): remained unchanged; also recorded: still remained their original forms
